Source: PubChem BioAssay AID743434 (The Scripps Research Institute Molecular Screening Center, 2014)
Calls of active or inactive are those of the source. The rule behind the calls is not given here.

target: Sphingosine 1-phosphate receptor 3 (Homo sapiens) (UniProt Q99500); test: blockers of human S1PR3 signaling – cell-based, fluorescence, dose response, late-stage follow-up (AID 743434); details: S1P3-expressing cells, fluorescence antagonist assay
Sequence (Q99500 whole entry, looked up): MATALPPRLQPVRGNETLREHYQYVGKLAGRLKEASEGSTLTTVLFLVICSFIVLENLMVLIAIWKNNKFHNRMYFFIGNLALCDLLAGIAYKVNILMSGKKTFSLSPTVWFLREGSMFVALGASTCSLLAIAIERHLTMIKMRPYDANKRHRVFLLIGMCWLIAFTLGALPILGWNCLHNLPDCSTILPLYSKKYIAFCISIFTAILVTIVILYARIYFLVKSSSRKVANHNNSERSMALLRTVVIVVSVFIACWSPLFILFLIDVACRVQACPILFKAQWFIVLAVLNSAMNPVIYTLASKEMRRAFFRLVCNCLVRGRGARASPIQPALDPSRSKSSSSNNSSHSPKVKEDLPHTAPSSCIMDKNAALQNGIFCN

| SMILES | IC50 |
| --- | --- |
| O=C(NC(c1ccc(Cl)cc1)c1nc(-c2ccccn2)no1)c1cccc(Cl)c1 (stereo not drawn) | 2900 nM |
| O=C(NC(c1cccc(Cl)c1)c1nc(-c2ccccc2)no1)c1cc(Cl)cc(Cl)c1 (stereo not drawn) | 33 nM |
| Cc1ccc(C(=O)NC(c2ccccc2)c2nc(-c3ccccc3)no2)cc1 (stereo not drawn) | inactive |
| O=C(NC(c1ccc(Cl)c(Cl)c1)c1nc(-c2ccccc2)no1)c1ccc(Cl)c(Cl)c1 (stereo not drawn) | 66 nM |
| N#Cc1ccc(C(=O)NC(c2ccc(Cl)c(Cl)c2)c2nc(-c3ccccc3)no2)cc1 (stereo not drawn) | 320 nM |
| COc1ccc(C(=O)NC(c2ccccc2)c2nc(-c3ccccc3)no2)cc1 (stereo not drawn) | inactive |
| O=C(NC(c1ccc(Br)cc1)c1nc(-c2ccccc2)no1)c1ccc(Cl)c(Cl)c1 (stereo not drawn) | 214 nM |
| O=C(NC(c1ccc(Cl)c(Cl)c1)c1nc(-c2ccccc2)no1)c1cccc(Cl)c1 (stereo not drawn) | 53 nM |
| O=C(NC(c1ccccc1)c1nc(-c2ccccc2)no1)c1ccc(Cl)cc1 (stereo not drawn) | 2400 nM |
| O=C(NC(c1nc(-c2ccccc2)no1)C1CCOCC1)c1ccc(Cl)c(Cl)c1 (stereo not drawn) | 2800 nM |
| O=C(NC(c1ccc(Cl)cc1)c1nc(-c2ccccc2)no1)c1ccc(Cl)c(Br)c1 (stereo not drawn) | 390 nM |
| O=C(NC(c1ccc(Cl)cc1)c1nc(-c2cccc(Cl)c2)no1)c1cccc(Cl)c1 (stereo not drawn) | 1100 nM |
| O=C(NC(c1ccccc1)c1nc(-c2ccccc2)no1)c1cccc(Cl)n1 (stereo not drawn) | 2800 nM |
| O=C(NC(Cc1ccccc1)c1nc(-c2ccccc2)no1)c1cccc(Cl)c1 (stereo not drawn) | 5700 nM |
| O=C(NC(c1nc(-c2ccccc2)no1)C1CCCCC1)c1ccc(Cl)c(Cl)c1 (stereo not drawn) | 3300 nM |
| O=C(c1cccc(Cl)c1)N(CCO)C(c1ccc(Cl)c(Cl)c1)c1nc(-c2ccccc2)no1 (stereo not drawn) | inactive |
| O=C(NC(c1ccc(Cl)c(Cl)c1)c1nc(-c2ccccc2)no1)c1ccc(Cl)cc1 (stereo not drawn) | 76 nM |
| O=C(NC(c1ccc(Cl)cc1)c1nc(-c2ccccc2)no1)c1cccc(Cl)c1 (stereo not drawn) | 214 nM |
